Key:
[1] = test system: A-375; assay: Cytotoxicity against human A375 cells assessed as reduction in cell viability incubated for 72 hrs by SRB assay; format: functional, cell-based
[2] = test system: HT-29; assay: Cytotoxicity against human HT29 cells assessed as reduction in cell viability incubated for 72 hrs by SRB assay; format: functional, cell-based
[3] = test system: MCF7; assay: Cytotoxicity against human MCF7 cells assessed as reduction in cell viability incubated for 72 hrs by SRB assay; format: functional, cell-based
[4] = test system: A2780; assay: Cytotoxicity against human A2780 cells assessed as reduction in cell viability incubated for 72 hrs by SRB assay; format: functional, cell-based
[5] = test system: FaDu; assay: Cytotoxicity against human FaDu cells assessed as reduction in cell viability incubated for 72 hrs by SRB assay; format: functional, cell-based
[6] = test system: NIH3T3; assay: Cytotoxicity against mouse NIH3T3 cells assessed as reduction in cell viability incubated for 72 hrs by SRB assay; format: cell-based
[7] = Selectivity index, ratio of IC50 for mouse NIH3T3 cells to IC50 for human A375 cells incubated for 72 hrs by SRB assay; format: toxicity; settings: NIH3T3 cells versus A375 cells, read-out: Ratio IC50
[8] = in vitro; settings: mouse, NIH3T3 cells versus MCF7 cells
Description: Selectivity index, ratio of IC50 for mouse NIH3T3 cells to IC50 for human MCF7 cells incubated for 72 hrs by SRB assay

[9] = in vitro; settings: mouse, NIH3T3 cells versus A2780 cells
Description: Selectivity index, ratio of IC50 for mouse NIH3T3 cells to IC50 for human A2780 cells incubated for 72 hrs by SRB assay

[10] = in vitro; settings: mouse, NIH3T3 cells versus FaDu cells
Description: Selectivity index, ratio of IC50 for mouse NIH3T3 cells to IC50 for human FaDu cells incubated for 72 hrs by SRB assay

[11] = in vitro; settings: mouse, NIH3T3 cells versus HT29 cells
Description: Selectivity index, ratio of IC50 for mouse NIH3T3 cells to IC50 for human HT29 cells incubated for 72 hrs by SRB assay

[12] = Drug uptake in mitochondria of human A2780 cells at 0.054 mM incubated for 1 hr with compound and Hoechst 33342 and followed by further incubation with Rhodamine123 for 20 mins by fluorescence microscopic method; format: ADME; settings: a2780, 1.333 h, 54 µM, time 80 min
[13] = Drug uptake in nucleus of human A2780 cells at 0.054 mM incubated for 1 hr with compound and Hoechst 33342 and followed by further incubation with Rhodamine123 for 20 mins by fluorescence microscopic method; format: ADME, subcellular; settings: a2780, 1.333 h, 54 µM, time 80 min
[14] = test system: A-375; assay: Induction of apoptosis in human A375 cells assessed as apoptotic cells after 48 hrs by annexin V-FITC and propidium iodide staining based flow cytometric analysis; format: functional
[15] = test system: A-375; assay: Induction of apoptosis in human A375 cells assessed as late apoptotic cells after 48 hrs by annexin V-FITC and propidium iodide staining based flow cytometric analysis; format: functional
[16] = test system: A-375; assay: Induction of apoptosis in human A375 cells assessed as necrotic cells after 48 hrs by annexin V-FITC and propidium iodide staining based flow cytometric analysis; format: functional
[17] = test system: A2780; assay: Cell cycle arrest in human A2780 cells assessed as accumulation at G1 phase after 48 hrs by PI staining based flow cytometric analysis (reference value: 54.53 %); format: functional
[18] = test system: A2780; assay: Cell cycle arrest in human A2780 cells assessed as accumulation at S phase after 48 hrs by PI staining based flow cytometric analysis (reference value: 34.22 %); format: functional
[19] = test system: A2780; assay: Cell cycle arrest in human A2780 cells assessed as accumulation at G2/M phase after 48 hrs by PI staining based flow cytometric analysis (reference value: 11.25 %); format: functional
[20] = test system: A2780; assay: Cell cycle arrest in human A2780 cells assessed as apoptotic cells after 48 hrs by PI staining based flow cytometric analysis (reference value: 0.48 %); format: functional
[21] = Homo sapiens, A-375, 72 h, read-out: IC50
[22] = Homo sapiens, HT-29, 72 h, read-out: IC50
[23] = Homo sapiens, MCF7, 72 h, read-out: IC50
[24] = Homo sapiens, A2780, 72 h, read-out: IC50
[25] = Homo sapiens, FaDu, 72 h, read-out: IC50
[26] = Mus musculus, NIH3T3, 72 h, read-out: IC50

SMILES	IC50 [1, 21]	IC50 [2, 22]	IC50 [3, 23]	IC50 [4, 24]	IC50 [5, 25]	IC50 [6, 26]	selectivity ratio at 72 h [7]	selectivity ratio at 72 h [8]	selectivity ratio at 72 h [9]	selectivity ratio at 72 h [10]	further results
C=C(c1ccc(C(=O)O)cc1)c1cc2c(cc1C)C(C)(C)CCC2(C)C [BEXAROTENE]	28400 nM	> 30000 nM	10600 nM	26500 nM	29800 nM	18700 nM	0.7	1.8	0.6	0.6	
CN[C@@H]1C[C@H]2O[C@@](C)([C@@H]1OC)n1c3ccccc3c3c4c(c5c6ccccc6n2c5c31)C(=O)NC4 [STAUROSPORINE]						8 nM					
C[C@]12CC[C@H](O)C=C1CC[C@@H]1[C@@H]2CC[C@]2(C)C(c3cccnc3)=CC[C@@H]12											IC50 ([1]; a-375): Nd(Insoluble); IC50 ([2]; ht-29): Nd(Insoluble); IC50 ([3]; mcf7): Nd(Insoluble); IC50 ([4]; a2780): Nd(Insoluble); IC50 ([5]; fadu): Nd(Insoluble); IC50 ([6]; nih3t3): Nd(Insoluble)
CCN(CC)c1ccc2c(-c3ccccc3C(=O)O[C@H]3CC[C@@]4(C)C(=CC[C@@H]5[C@@H]4CC[C@]4(C)C(c6cccnc6)=CC[C@@H]54)C3)c3ccc(=[N+](CC)CC)cc-3oc2c1	200 nM	200 nM	200 nM	100 nM	200 nM	300 nM	1.7	1.6	1.8	1.8	selectivity ratio at 72 h [11]: 1.1
CCN(CC)c1ccc2c(-c3ccccc3C(=O)O[C@H]3CC[C@H]4[C@@H]5CCC6=CC(=O)CC[C@]6(C)[C@H]5CC[C@]34C)c3ccc(=[N+](CC)CC)cc-3oc2c1.[Cl-]	160 nM	120 nM	60 nM	80 nM	200 nM	200 nM	1.1	3.1	2.2	1	Drug uptake [12]: Active; Drug uptake [13]: Not Active; Activity [14]: 5%; Activity [15]: 12%; Activity [16]: 20%; Activity [17]: 51.77%; Activity [18]: 44.74%; Activity [19]: 3.48%; Activity [20]: 3.29%; selectivity ratio at 72 h [11]: 1.5
CCN(CC)c1ccc2c(-c3ccccc3C(=O)O[C@H]3CC[C@@]4(C)C(=CC[C@H]5[C@@H]6CC[C@H]([C@H](C)CCCC(C)C)[C@@]6(C)CC[C@@H]54)C3)c3ccc(=[N+](CC)CC)cc-3oc2c1.[Cl-]											IC50 ([1]; a-375): Nd(Insoluble); IC50 ([2]; ht-29): Nd(Insoluble); IC50 ([3]; mcf7): Nd(Insoluble); IC50 ([4]; a2780): Nd(Insoluble); IC50 ([5]; fadu): Nd(Insoluble); IC50 ([6]; nih3t3): Nd(Insoluble)
CCN(CC)c1ccc2c(-c3ccccc3C(=O)OCC(=O)[C@@]3(O)CC[C@H]4[C@@H]5CCC6=CC(=O)C=C[C@@]6(C)[C@H]5C(=O)C[C@@]43C)c3ccc(=[N+](CC)CC)cc-3oc2c1.[Cl-]	100 nM	600 nM	200 nM	300 nM	400 nM	1800 nM	1.8	7.3	5.2	4.1	Activity [14]: 48%; Activity [15]: 14%; Activity [16]: 2%; Activity [17]: 12.78%; Activity [18]: 87.22%; Activity [19]: 0%; Activity [20]: 37.36%; selectivity ratio at 72 h [11]: 2.9
COc1cccc2c1C(=O)c1c(O)c3c(c(O)c1C2=O)C[C@@](O)(C(=O)CO)C[C@@H]3O[C@H]1C[C@H](N)[C@H](O)[C@H](C)O1 [DOXORUBICIN]		900 nM		10 nM		400 nM					
CCN(CC)c1ccc2c(-c3ccccc3C(=O)N3CCNCC3)c3ccc(=[N+](CC)CC)cc-3oc2c1	> 30000 nM	> 30000 nM	17800 nM	26400 nM	> 30000 nM	> 30000 nM			1.1		
C=C(c1ccc(C(=O)N2CCN(C(=O)c3ccccc3-c3c4ccc(=[N+](CC)CC)cc-4oc4cc(N(CC)CC)ccc34)CC2)cc1)c1cc2c(cc1C)C(C)(C)CCC2(C)C.[Cl-]											IC50 ([1]; a-375): Nd(Insoluble); IC50 ([2]; ht-29): Nd(Insoluble); IC50 ([3]; mcf7): Nd(Insoluble); IC50 ([4]; a2780): Nd(Insoluble); IC50 ([5]; fadu): Nd(Insoluble); IC50 ([6]; nih3t3): Nd(Insoluble)
C[C@]12C=CC(=O)C=C1CC[C@@H]1[C@@H]2C(=O)C[C@@]2(C)[C@H]1CC[C@]2(O)C(=O)CO [PREDNISONE]	> 30000 nM	> 30000 nM	> 30000 nM		> 30000 nM	> 30000 nM					

Source: ChEMBL document CHEMBL4765330, “Synthesis of some steroidal mitocans of nanomolar cytotoxicity acting by apoptosis” (Eur J Med Chem, 2020)
